Among the data in ChEMBL document CHEMBL3507680, “University of Dundee, Gates Library screen for HepG2 cell viability” are cytotoxicity values, retold here.

This data set is described as follows: Human HepG2 cell viability assay in 384 well format. The conditions noted are these: HepG2 cells, read-out: Inhibition. Set-up: dose 125 nL, time 70.5 hour; cytotoxicity at 70.5 h: concentration not given beside the values. Type of data set: toxicity, cell-based.
For the molecule `Cc1ccc(NC(=O)Cc2cnc3n(C)c(=O)[nH]c(=O)n23)cc1`, the cytotoxicity at 70.5 h was -8.62%.

Consider `COc1c(C)cnc(CN2CCOC(Cn3nc(C)nc3C)C2)c1C` (centres undefined), for which the cytotoxicity at 70.5 h is -1.22%.

For `CC1CCN(C(=O)c2cnn3c(-c4ccco4)ccnc23)CC1`, the cytotoxicity at 70.5 h is -8.7%.

In the case of `O=C(NC1CCN(c2ccc(-c3ccccc3F)nn2)C1)C1CCC1` (centres undefined), the cytotoxicity at 70.5 h stood at 1.72%.

`CC(C)(O)CN1CCN(C(=O)COC2CCCC2)CC1`: the cytotoxicity at 70.5 h is -2.37%.

Take `Cc1ccc(CN2CCOC3(COCCN(S(C)(=O)=O)C3)C2)s1` (centres undefined): the cytotoxicity at 70.5 h is -6.35%.

For the molecule `CC(=O)N1CCC(N2CC(Cc3nccc4ccn(C)c34)C2)CC1`, the cytotoxicity at 70.5 h is -6.03%.

With `CN(Cc1noc2c1CCCC2)C(=O)Nc1cncc(F)c1`, the cytotoxicity at 70.5 h was -7.85%.

As to `CCOc1ccc(-c2c(C#N)c(N)nc3c2COCC3)cn1`, the cytotoxicity at 70.5 h is -15%.

As for `CN(C)CC1(O)CCN(C(=O)c2cnc(-c3ccccn3)nc2)C1` (centres undefined), the cytotoxicity at 70.5 h worked out at 15.3%.

With `Cc1cc(-c2cnc(N3CCCC(C)C3)nc2-c2cccnc2C)on1` (centres undefined), the cytotoxicity at 70.5 h worked out at 23.3%.

For `O=S(=O)(CCCN1CCCCC1Cn1cncn1)c1ccccc1` (centres undefined), the cytotoxicity at 70.5 h was -4.13%.

In the case of `COc1cc(N2CCCn3cnc(COCCO)c3C2)ncn1`, the cytotoxicity at 70.5 h came out at 0.488%.

For `COc1cc(-c2noc(C(CC(C)C)N3CCCCC3=O)n2)ccn1` (centres undefined), the cytotoxicity at 70.5 h was -2.9%.

Turning to `CN(Cc1cnccn1)c1cncc(Br)c1`, the cytotoxicity at 70.5 h was -22%.

In the case of `OC[C@H]1CCCN1c1nccc(-c2cncnc2C2CCCCC2)n1`, the cytotoxicity at 70.5 h is -2.18%.

As for `O=C1NC[C@H]2CN(C3CCOCC3)CCN12`, the cytotoxicity at 70.5 h was -4.38%.

`Cc1ccc(C(=O)N2CCSCC2)cc1N1CCNC1=O`: the cytotoxicity at 70.5 h is -5.73%.

Regarding `CC(=O)NCC1CCCN(C(=O)Cc2c(C)noc2C)C1` (centres undefined), the cytotoxicity at 70.5 h was -22.9%.

In the case of `CC1c2ncc(CNC(=O)C3CC3)n2CCN1Cc1cccnc1` (centres undefined), the cytotoxicity at 70.5 h was -5.38%.

`Cc1nn(C)c(C)c1C1CCCN1C(=O)CCCNc1ncccn1` (centres undefined): the cytotoxicity at 70.5 h is -8.51%.

In the case of `COCC(=O)N1C[C@@H]2CCCO[C@@H]2[C@H](N(C)Cc2ccco2)C1`, the cytotoxicity at 70.5 h is -3.25%.

On to `CN(c1ncc(S(N)(=O)=O)s1)C1CCc2ccccc21` (centres undefined), for which the cytotoxicity at 70.5 h was -1.27%.

`Cn1cc(-c2nc3c(cc2C(=O)O)CCN(C(=O)C2CC2)CC3)cn1`: the cytotoxicity at 70.5 h was -7.13%.

Turning to `O=C(CCOc1ccccc1F)N1CCCC1Cn1cccn1` (centres undefined), the cytotoxicity at 70.5 h came out at 0.51%.

On to `CCc1ccc2nc(-c3cnn(C)c3)cc(C(=O)N3CCOCC3)c2c1`, for which the cytotoxicity at 70.5 h was -7.51%.

`Cc1cc(N2C[C@H](NC(=O)C3(C#N)CCOCC3)[C@@H](C(C)C)C2)ccn1`: the cytotoxicity at 70.5 h was -10.5%.

For the molecule `O=C1CNc2ncnc(N3CCN(Cc4cccc(F)c4)CC3)c2N1`, the cytotoxicity at 70.5 h worked out at 17.9%.

`Cc1nc(C)n(CC2CCCN(CCOc3ccc(C#N)cc3)C2)n1` (centres undefined): the cytotoxicity at 70.5 h is -11.5%.

As to `O=C(Nc1cccc(N2CCN(CC3CC3)CC2)c1)C1CCOC1` (centres undefined), the cytotoxicity at 70.5 h was -4.69%.

Take `CC1CCN(C)c2ccccc2N1C(=O)c1ccnc(-n2cncn2)c1` (centres undefined): the cytotoxicity at 70.5 h came out at 2.2%.

`CCNC(=O)NC1CN(CC(=O)NCc2ccccc2C)C[C@@H]1OC` (some centres undefined): the cytotoxicity at 70.5 h amounted to 1.44%.

As to `CC(C)(C)n1ncc2c1CCCC2NCc1ccc2c(c1)OCCO2` (centres undefined), the cytotoxicity at 70.5 h is 29.2%.

Turning to `O=C(c1ccsc1)N1C[C@H](N2CCOCC2)[C@@H]2OCCC[C@@H]21`, the cytotoxicity at 70.5 h was -1.61%.

`COc1ncccc1C(=O)N1CC[C@H]2C[C@H](c3nnc(C)[nH]3)O[C@@H]2C1`: the cytotoxicity at 70.5 h was -14.1%.

Take `CSc1ccc(-c2nc(CN3CCC(C(N)=O)CC3)c(C)o2)cc1`: the cytotoxicity at 70.5 h was -6.77%.

Take `Cc1cc(C(=O)N(C)CCCn2cccn2)nc(N)n1`: the cytotoxicity at 70.5 h was -5.11%.

With `CC(C)c1csc(C(=O)N2CCCC(Cn3cc(CO)nn3)C2)n1` (centres undefined), the cytotoxicity at 70.5 h is -0.0869%.

As for `Cc1nc(CN2CC(CCCc3ccccn3)(C(=O)N(C)C)C2)co1`, the cytotoxicity at 70.5 h is -1.84%.

As for `CN(C(=O)c1ccon1)[C@@H]1CCC[C@@H](Oc2ccccc2)[C@@H]1O`, the cytotoxicity at 70.5 h is -1.37%.

For `CCOCC1CN(Cc2cccnc2)Cc2nn(C)cc21` (centres undefined), the cytotoxicity at 70.5 h was -11.3%.

With `Cc1ccc2nc(C3CCN(CC(C)C)CC3)nc(O)c2c1`, the cytotoxicity at 70.5 h is -6.3%.

As for `CCOc1ccccc1C1CCCN1` (centres undefined), the cytotoxicity at 70.5 h came to 1.15%.

In the case of `Cc1csc(CN2CCC[C@]3(C[C@@H](OCC4CC4)CO3)C2)n1`, the cytotoxicity at 70.5 h came to 24.4%.

Take `CCn1ncc(CN2CCc3nc(-c4cccnc4)nc(O)c3C2)c1C`: the cytotoxicity at 70.5 h is 9.93%.

For the molecule `FC(F)(F)COc1ccc(CSCc2ccon2)cn1`, the cytotoxicity at 70.5 h was -8.78%.

Regarding `CC(C)(C)OC(=O)N(CCNS(=O)(=O)N1CCOCC1)C1CC1`, the cytotoxicity at 70.5 h was -3.4%.

As to `Cc1noc(C)c1CN1CC[C@H]2OCC[C@@H](C(=O)N3CCCO3)[C@H]2C1`, the cytotoxicity at 70.5 h is -2.47%.

Consider `CCn1cc(NC(=O)CCc2ccc3c(c2)OCCCO3)cn1`, for which the cytotoxicity at 70.5 h was found to be 10.1%.

With `C[C@@H](NC(=O)c1ccc(Cl)cc1)c1onc(-c2cccnc2)c1C(=O)O`, the cytotoxicity at 70.5 h was -6%.

On to `NC(=O)c1ccn(COc2ccccc2Cl)n1`, for which the cytotoxicity at 70.5 h was -9.79%.

As for `Cc1ccnc(N2CCCC(c3nncn3C3CC3)C2)n1` (centres undefined), the cytotoxicity at 70.5 h was -2.88%.

Take `Cn1cc(NC(=O)c2cccc(C(F)(F)F)c2)c(=O)n(C)c1=O`: the cytotoxicity at 70.5 h is -2.92%.

With `Cc1ccc(N(CCC#N)C(=O)CN2CCCC2c2ccsc2)cc1C` (centres undefined), the cytotoxicity at 70.5 h came out at 0.542%.

Consider `COCCN1CC(=O)N2CC[C@@H](O)C[C@H]2C1=O`, for which the cytotoxicity at 70.5 h amounted to 28.2%.

For `CCN1CC2(CC1=O)CN(C(C)=O)CCN(C(=O)c1ccco1)C2` (centres undefined), the cytotoxicity at 70.5 h is -9.45%.

On to `Cc1cnc(N2Cc3cnn(Cc4ccc(F)cc4)c3C2)nc1N(C)C`, for which the cytotoxicity at 70.5 h is -0.641%.

With `Cc1cc2n(n1)CC(CNCc1cnn(C)c1)CN2` (centres undefined), the cytotoxicity at 70.5 h was -15%.

Take `Cn1nnc2c1CCN(Cc1ccccc1)C2COCC1CC1` (centres undefined): the cytotoxicity at 70.5 h was -3.64%.

On to `CCOC(=O)N1CCC(Nc2cc(CC)nc3c(C)c(C)nn23)CC1`, for which the cytotoxicity at 70.5 h was -4.43%.

As to `O=c1[nH]nc(CNc2ncc(Cl)cn2)[nH]1`, the cytotoxicity at 70.5 h was found to be 28.8%.

For `O=S1(=O)CCCN1Cc1coc(-c2cccs2)n1`, the cytotoxicity at 70.5 h is -10.6%.

Consider `CC1(C(=O)N2CCOCC2)CN(Cc2ncc[nH]2)CCO1` (centres undefined), for which the cytotoxicity at 70.5 h was 11.7%.

As for `Cc1[nH]n(-c2ccccc2)c2nnc(N)c1-2`, the cytotoxicity at 70.5 h was -2.04%.

For `Cc1nnc2n1CCN(C(=O)c1cc(Br)c[nH]1)C2`, the cytotoxicity at 70.5 h is -5.46%.

As to `Cc1nc(C2CCCN(C(=O)Cn3ccccc3=O)C2)no1` (centres undefined), the cytotoxicity at 70.5 h was -9.54%.

Take `Cc1nc(N2CCN(C(=O)c3ccccc3)CC2)c2cnn(C)c2n1`: the cytotoxicity at 70.5 h is -0.834%.

For `Cc1ccc(C(CNCc2cccc3c2OCO3)N2CCOCC2)o1` (centres undefined), the cytotoxicity at 70.5 h was -17%.

`NC1CCc2c(ccc(=O)n2CC2CC2)C1` (centres undefined): the cytotoxicity at 70.5 h worked out at 27.6%.

Take `CC(=O)N1CC(=O)N(c2cnn(C)c2)CC12CCN(Cc1ccsc1)C2` (centres undefined): the cytotoxicity at 70.5 h turned out to be 21.7%.

Take `CNC(=O)[C@@]12CCO[C@@H]1CCN(S(=O)(=O)c1ccc(C)cc1)C2`: the cytotoxicity at 70.5 h was -4.45%.

For `CN(C)CCC1CCN(Cc2ccn(C)c(=O)c2)CC1`, the cytotoxicity at 70.5 h is -4.16%.

Turning to `Cc1cn[nH]c1C1COCCN1S(=O)(=O)c1cn[nH]c1` (centres undefined), the cytotoxicity at 70.5 h is -0.517%.

Regarding `CS(=O)(=O)N1C[C@H]2CCCN(Cc3ccsc3)[C@H]2C1`, the cytotoxicity at 70.5 h turned out to be 13.4%.

Turning to `COCCCS(=O)(=O)N(Cc1cccc(C)c1)Cc1ccccn1`, the cytotoxicity at 70.5 h was 8.58%.

In the case of `CC1=Nc2c(c(=O)[nH]n2C(C)C)C(c2cccs2)S1` (centres undefined), the cytotoxicity at 70.5 h is -8.68%.

Regarding `Cc1cc(C)n(CC2CCCCN2Cc2cscn2)n1` (centres undefined), the cytotoxicity at 70.5 h is -13.4%.

Regarding `Cc1cccc(C(=O)N2CCCC(Cc3cncc4ccccc34)C2)n1` (centres undefined), the cytotoxicity at 70.5 h was -0.949%.

Turning to `Fc1ccc(CN2CCOCC3(CCN(Cc4nccs4)C3)C2)cc1` (centres undefined), the cytotoxicity at 70.5 h is -1.05%.

For the molecule `Cc1c(CNC(=O)C2CCCN2C(=O)C2CC2)oc2ccccc12` (centres undefined), the cytotoxicity at 70.5 h was -7.22%.

`NC(=O)CCC1CCCN(c2ccc3ccc(F)cc3n2)C1` (centres undefined): the cytotoxicity at 70.5 h was -3.15%.

Consider `Cc1nc(CN2CCCC(NCCOCC(F)(F)F)C2)no1` (centres undefined), for which the cytotoxicity at 70.5 h is 24.6%.

With `COc1ccc2c(c1)CCCN(C(C)C(=O)NC(C)C)C2` (centres undefined), the cytotoxicity at 70.5 h was -15.7%.

For `Cc1ccccc1CNc1nc(O)cc(C2CC(=O)N(C)C2)n1` (centres undefined), the cytotoxicity at 70.5 h was -7.17%.

In the case of `Cc1cc(C)n(CC2CN(Cc3ccccn3)CCO2)n1` (centres undefined), the cytotoxicity at 70.5 h was found to be 1.96%.

Turning to `Cc1ccc(S(=O)(=O)N2CCc3ccc(F)cc32)cc1C(=O)O`, the cytotoxicity at 70.5 h was -6.54%.

Regarding `Cc1ccc2c(c1)SCC(=O)N2CC(=O)N1CCCC1c1nccs1` (centres undefined), the cytotoxicity at 70.5 h is -14%.

As for `Cc1ccccc1C(O)CNS(=O)(=O)Cc1cccc(C#N)c1` (centres undefined), the cytotoxicity at 70.5 h is -3.55%.

On to `CCOC(=O)C1CN(CC2CC2)Cc2ncn(CC)c21` (centres undefined), for which the cytotoxicity at 70.5 h was -2.34%.

On to `Cc1ccc(CS(=O)(=O)N2Cc3c(CN(C)C)nn(C)c3C2)cc1`, for which the cytotoxicity at 70.5 h is -4.61%.

Consider `CN1CCN(C(=O)NC2CCCC2)Cc2cccnc21`, for which the cytotoxicity at 70.5 h is -4.32%.

Turning to `CN(C)Cc1nnc(C(=O)N(C)Cc2ccc(F)cc2)o1`, the cytotoxicity at 70.5 h was -4.17%.

Consider `CN(Cc1ccc(Cl)c(F)c1)C(=O)c1ccncc1F`, for which the cytotoxicity at 70.5 h was -6.79%.

Regarding `CCC(=O)NCC(=O)NCC1(O)CCC(C(C)(C)C)CC1` (centres undefined), the cytotoxicity at 70.5 h is -7.33%.

On to `Cc1cccc(C(C)CNC(=O)N2CCOCC3(CCOCC3)C2)c1` (centres undefined), for which the cytotoxicity at 70.5 h was -4.47%.

Consider `CC(=O)N(Cc1noc(C)n1)C1CCN(Cc2ccccc2C#N)C1` (centres undefined), for which the cytotoxicity at 70.5 h was -5.45%.

Regarding `CC(Nc1ncnc2c1CCNC2)c1ccc2c(c1)CCCC2` (centres undefined), the cytotoxicity at 70.5 h is -2.47%.

In the case of `COc1cc(C2Nc3cc(Cl)ccc3C3=NCCN32)ccc1O` (centres undefined), the cytotoxicity at 70.5 h was -8.38%.

In the case of `CC(C)n1c(C2CCCN(CC(=O)NC(N)=O)C2)nc2ccccc21` (centres undefined), the cytotoxicity at 70.5 h is -1.95%.
